From US20220265817A1, “THERAPEUTIC COMPOSITIONS AND METHODS FOR TREATING HEPATITIS B” (priority 2017, published 2022) come the findings set out here.

One series has as its system HepG2.2.15 cells. The series is described as follows: HepG2.2.15 cytotoxicity (intracellular ATP, Cell-Titer Glo; microscopy). Format: cell-based, human hepatoblastoma HepG2 cells. The conditions noted are these: Trial 3, SIRNA-NP μM: 0.0025, 0.00079, 0.00025, 7.9E−05, 2.5E−05, 0. As for the experimental part:
(§1) Untreated positive control samples (0.5% DMSO in media) were included on each plate in multiple wells. Following a 6 day-incubation, media was removed from treated cells for use in an HBsAg chemiluminescence immunoassay (CLIA) (Autobio Diagnostics, Cat No. CL0310-2). An HBsAg standard curve was generated to verify that the levels of HBsAg quantification were within the detection limits of the assay. The remaining inhibitor-treated cells were assessed for cytotoxicity by determination of the intracellular adenosine triphosphate (ATP) using a Cell-Titer Glo reagent (Promega) as per manufacturers instructions and by microscopic analysis of the cells throughout the duration of inhibitor treatment. Cell viability was calculated as a percentage of the untreated positive control wells.

The subject of series [1] is HBsAg secretion in HepG2.2.15 cells. Kind of series: HepG2.2.15 cell culture system, HBsAg quantitation by CLIA, MacSynergy II. Format: cell-based, human hepatoblastoma HepG2 cells. The conditions noted are these: for Additive % Inhibition versus negative control: Trial 3, n = 4, SIRNA-NP μM: 0.0025, 0.00079, 0.00025, 7.9E−05, 2.5E−05, 0. As for the experimental part: In vitro combination studies were conducted using the method of Prichard and Shipman (Prichard M N, and Shipman C Jr., Antiviral Research, 1990, 14 (4-5), 181-205; and Prichard M N, et. al., MacSynergy II). The HepG2.2.15 cell culture system is a cell line derived from human hepatoblastoma HepG2 cells that have been stably transfected with the adw2-subtype HBV genome as previously explained in Sells et al. (Proc. Natl. Acad. Sci. U. S. A, 1987. Vol 84:1005-1009). HepG2.2.15 cells secrete Dane-like viral particles, produce HBV DNA, and also produce the viral proteins, hepatitis B e antigen (HBeAg) and hepatitis B surface antigen (HBsAg).
To test the compound combinations, HepG2.2.15 (30,000 cells/well) were plated in 96 well tissue-culture treated microtiter plates in RPMI+L-Glutamine medium supplemented with 1% penicillin-streptomycin, 20 μg/mL geneticin (G418), 10% fetal bovine serum, and incubated in a humidified incubator at 37° C. and 5% CO2 overnight. […] […] The microtiter cell plates were incubated for a duration of 6 days in a humidified incubator at 37° C. and 5% CO2.
as §1
The plates were read using an EnVision multimode plate reader (PerkinElmer Model 2104). […] The RLU data from the single compound treated cells were analyzed using XL-Fit module in Microsoft Excel to determine EC50 values using a 4-parameter curve fitting algorithm.

The subject of series [2] is hepatitis B virus (HBV). Kind of series: Mouse model of HBV (AAV1.2 tail vein injection), serum HBsAg enzyme immunoassay. In kind it is in vivo, C57/B16 mice. The conditions noted are these: Compound 20 3.0 mg/kg oral twice daily Days 0-28, HBV siRNA (LNP) 0.3 mg/kg IV Day 0, n=5 (n=4 vehicle + siRNA). As for the experimental part: This viral vector contains a 1.2-fold overlength copy of the HBV genome and expresses HBV surface antigen (HBsAg) amongst other HBV products. Serum HBsAg expression in mice was monitored using an enzyme immunoassay. Animals were sorted (randomized) into groups based on serum HBsAg levels such that a) all animals were confirmed to express HBsAg and b) HBsAg group means were similar to each other prior to initiation of treatments.
Animals were treated with Compound 20 as follows: Starting on Day 0, a 3.0 mg/kg dosage of Compound 20 was administered orally to animals on a twice-daily frequency for a total of 56 doses between Days 0 and 28. Compound 20 was dissolved in a co-solvent formation for administration. Negative control animals were administered either the co-solvent formulation alone, or were not treated with any test article. Animals were treated with lipid nanoparticle (LNP)-encapsulated HBV-targeting siRNAs as follows: On Day 0, an amount of test article equivalent to 0.3 mg/kg siRNA was administered intravenously. The HBsAg expression levels for each treatment were compared against the Day 0 (pre-dose) values for that group.
The effect of these treatments was determined by collecting blood on Days 0 (pre-treatment), 7, 14, and 28 and analyzing it for serum HBsAg content.

Series [3] has as its system hepatitis B virus (HBV). The series is described as follows: Mouse model of HBV (pAAV/HBV1.2 hydrodynamic injection), serum HBsAg enzyme immunoassay. Format: in vivo, C3H/HeN mice. The conditions noted are these: HBV siRNA 1 mg/kg IV Days 0, 7, 14, poly(I:C) 20 μg HDI Day 0, mean ± SEM. The source says: A mouse model of hepatitis B virus (HBV) was used to assess the anti-HBV effects of an immune stimulant and HBV-targeting siRNAs, both as independent treatments and in combination with each other.
This plasmid carries a 1.2-fold overlength copy of a HBV genome and expresses HBV surface antigen (HBsAg) amongst other HBV products. Serum HBsAg expression in mice was monitored using an enzyme immunoassay. Animals were sorted (randomized) into groups based on serum HBsAg levels such that a) all animals were confirmed to express HBsAg and b) HBsAg group means were similar to each other prior to initiation of treatments.
Animals were treated with immune stimulant as follows: On Day 0, 20 micrograms of high molecular weight polyinosinic:polycytidylic acid (poly(I:C)) was administered via HDI. Animals were treated with lipid nanoparticle (LNP)-encapsulated HBV-targeting siRNAs as follows: On each of Days 0, 7 & 14, an amount of test article equivalent to 1 mg/kg siRNA was administered intravenously. A negative control group was included as the HBsAg expression level is not completely stable in this mouse model of HBV; the absolute concentration of serum HBsAg generally declines over time in individual animals.
The effect of the treatments was determined by collecting a small amount of blood on Days 0 (pre-treatment), 3, 7, 14 & 21 and analyzing it for serum HBsAg content. Samples were diluted as appropriate to generate values within the assay range of quantitation where possible. Individual values falling below the lower limit of quantitation (LLOQ) were set as one-half the LLOQ.

One may read the EC50 as the concentration that produces a half-maximal response. `COCCCOc1cc2c(cc1OC)-c1cc(=O)c(C(=O)O)cn1[C@H](C(C)C)C2` [Compound 5]: the “Avg % Cell Viability vs control” value with HepG2.2.15 cells (Compound 5 0.0001 μM) worked out at 128%; with HepG2.2.15 cells (Compound 5 0.000316 μM) it was 131%; with HepG2.2.15 cells (Compound 5 0.001 μM), 141%; with HepG2.2.15 cells (Compound 5 0.00316 μM), 127%; in the series with HepG2.2.15 cells (Compound 5 0.1 μM), 99%; with HepG2.2.15 cells (Compound 5 1.0E−05 μM), 140%. Further, the “Avg % Cell Viability vs control” value with HepG2.2.15 cells (Compound 5 1.00E−06 μM) was 131%; with HepG2.2.15 cells (Compound 5 3.16E−06 μM) it was 127%; in the series with HepG2.2.15 cells (Compound 5 3.17E−05 μM), 131%. In series [1] (HBsAg by CLIA, trial by row: r8 1, r9 2, r10 3, read-out: Compound 5 EC50), the EC50 was determined as 2 nM. Besides, the “Additive % Inhibition versus negative control” value in series [1] (Compound 5 0.0001 μM) is given as 69.99%; in series [1] (Compound 5 0.000316 μM), 82.39%; in series [1] (Compound 5 0.001 μM), 89.01%; in series [1] (Compound 5 0.00316 μM) it was 90.26%; in series [1] (Compound 5 0.1 μM) it was 86.26%; in series [1] (Compound 5 1.0E−05 μM) it was 46.36%. Also, the “Additive % Inhibition versus negative control” value in series [1] (Compound 5 1.00E−06 μM) worked out at 22.68%; in series [1] (Compound 5 3.16E−06 μM) it was 34.18%; in series [1] (Compound 5 3.17E−05 μM), 56.34%.

Regarding `COCCCOc1cc2c(cc1OC)-c1cc(=O)c(C(=O)O)cn1[C@H](C(C)C)C2` [Compound 20], the “serum HBsAg as percentage of pre-treatment baseline at Day 0 (mean ± SEM)” value turned out to be 7 ± 1% in the series on hepatitis B virus (HBV) [2] (D 7), 8 ± 2% in the series with hepatitis B virus (HBV) [2] (D 14), 7 ± 2% in the series on hepatitis B virus (HBV) [2] (D 21) and 8 ± 2% in the series with hepatitis B virus (HBV) [2] (D 28).

As to “polyinosinic:polycytidylic acid [Poly(I:C)]”, the “Serum HBsAg, % of individual pre-treatment baseline (Day 0)” value with hepatitis B virus (HBV) [3] (Day 3, n=4 or 5) came out at 6.1 ± 1.1%; in the series with hepatitis B virus (HBV) [3] (Day 7), 3.5 ± 1.1%; in the series on hepatitis B virus (HBV) [3] (Day 14), 3.9 ± 1.4%; with hepatitis B virus (HBV) [3] (Day 21), 4.7 ± 2.3%.
